“Also recorded” adds a separate entry of the source. Read-outs that look alike come from different tables or passages of the source.
What was measured:
[1] = Calculated pseudo-acceleration (Γ) of odorants in water, water-air and air
Description: In the analysis of the volatility of odorants, several variables are found to be important. First, the vapor pressure of the odorant is an important measure of its volatility. The product of the odorant's activity coefficient γ in the partition its mole fraction X and its pure vapor pressure value Pv, gives the odorant's relative vapor pressure. A second important factor for volatility is the diffusivity D12 of the odorant in the considered media: water, vapor phase and subsequently air.
Other important variables to consider are the molecular weight Mw, of the odorant and its density in the partition ρl and in the solvent vapor state ρv. The final variable to consider is an energy parameter in the partition state. The energy difference ε12=ε12(polar)−ε12o(non-polar) is proportional to the partition coefficient of an odorant in a polar solvent such as water, and a water immiscible solvent such as octanol, benzene and paraffin liquid. The energy ε12 is called the partition energy and can be correlated to the clogP value of odorants.
The five variables D12, Pv, Mw, ρv and ε12 and the three dimensional variables indicate that there can be 5−3=2 dimensional variables which describe Newton's law. The easiest separation is to break the acceleration vector into 2 dimensional quantities: a frequency or first order rate constant (1/time) and a velocity (distance/time) term.
The velocity group can be formed from the vapor pressure and density. Since pressure has units of mass*distance/distance^2*time^2, and density has units of mass/distance^3, the ratio of the two has units of velocity squared. The square root gives the desired velocity.
The first order rate constant can be formed from the variables Mw, D12 and ε12. Since the partition energy ε12 has dimensions of calories per mole (mass.length^2/mole.time^2) and the diffusivity coefficient D12 has a dimension of distance^2 per time, the ratio yields exactly a molecular weight unit per time t. The energy can be made dimensionless by dividing by the gas constant k and temperature T. The remaining variable D12 can be made to a frequency by dividing by a cross sectional area L^2. A molecular area calculated from the liquid molar volume could represent this area.
Pseudo acceleration values are also closely linked to the ability of an odorant to travel through headspace once it is airborne in addition to its ability to migrate through the water and water-air partitions.

[2] = cited from earlier work
[3] = cited from earlier work; remark: listed apart in the source
[4] = Randebrock 1986; cited from earlier work
[5] = GC-MS headspace release profile of perfume in shampoo, 1/100 dilution in water; format: physicochemical; conditions: Tropical Fruit Perfume
Protocol: Experimental Procedure: Individual odorant to be tested was added to 20 g of shampoo formulation (see formula below in Table 4) at 0.1%.
A 10 gram sample of formulation and fragrance was added to an empty 1000 ml pyrex beaker. This beaker was then filled with 1000 ml of 120 F tap water. Beaker with diluted shampoo sample was then immediately placed into a semi-enclosed plexiglass chamber.
Headspace Sampling: Once beaker was placed into chamber a Carboxan SPME field fiber was held at the top-side opening of the chamber over the beaker containing the sample. […] […] Top of plexiglass chamber was held open for entire 5 minutes of headspace sampling.

release category by Γ [1] | GC Abundance ([5]; 20 seconds) | GC Abundance ([5]; 30 seconds) | GC Abundance ([5]; 40 seconds) | GC Abundance ([5]; 50 seconds) | SMILES | ODT ([2]; Table 32, citrus note) | Boiling Point ([3]; Table 33) [deg C.] | further results
 |  |  |  |  | CCCCCCCCCCC=O [1-undecanal] |  |  | experimental odor detection threshold in air [4]: 0.00054 mg/m^3
sustained release |  |  |  |  | CCC=CCCC=CCO [2,6 NONADIEN-1-OL] |  |  | ODT ([2]; Table 26, cucumber-melon note): 50 ppb or less; odor detection threshold value in water [2]: 1 part per billion
flash release |  |  |  |  | CCC=CCCC=CC=O [2,6-NONADIENAL] |  |  | ODT ([2]; Table 26, cucumber-melon note): 50 ppb or less; odor detection threshold values in water [2]: 0.01 ppb
flash-release | 3100 | 3100 | 2000 | 1500 | CCOC(=O)C(C)CC (stereo not shown) [ETHYL 2-METHYLBUTYRATE, Ethyl 2-methylbutyrate] |  |  | GC Abundance ([5]; 10 seconds): 3000; exp ODT water ([2]; Booleans database): 0.1-0.3 ppb; ODT ([2]; Table 17, apple note compounds): 50 ppb or less
sustained release |  |  |  |  | CC(C)=CCCC(C)=CCS [THIOGERANIOL, 3,7-Dimethyl-2,6-octadien-1-thiol] | 50 ppb or less | 250 | Boiling Point [3]: 250 °C
flash release |  |  |  |  | CCCCC/C=C/CCC=O [TRANS-4-DECEN-1-AL] | 50 ppb or less | 200 | 
sustained release | 5000 | 14000 | 18000 | 20000 | CC(=O)OC1CCCCC1C(C)(C)C (stereo not shown) [VERDOX] |  |  | 

SMILES | release category by Γ [1] | GC Abundance ([5]; 20 seconds) | GC Abundance ([5]; 30 seconds) | GC Abundance ([5]; 40 seconds) | GC Abundance ([5]; 50 seconds) | ODT ([2]; Table 32, citrus note) | Boiling Point ([3]; Table 33) [deg C.] | further results
CC1=CCC(C(C)(C)S)CC1 (stereo not shown) | flash release |  |  |  |  | 50 ppb or less | 229 | 
C=C(C)[C@H]1CC=C(C)CC1 [d-LIMONENE, d-1-Methyl-4-isopropenyl-1-cyclohexene] | flash release; also recorded: flash-release | 7000 | 7000 | 5000 | 4000 |  |  | GC Abundance ([5]; 5 seconds): 7000; GC Abundance ([5]; 10 seconds): 7000
